From patent publication US12502386B2, “Nitrogen-containing heterocyclic compound and use thereof” (SHANGHAI SHIJIANG BIOTECHNOLOGY CO., LTD, priority 2022, dated 2025)

What was measured:
Type in all cases: cell-based, human
[1] = tested on: Con-NCI-H82 cell; experiment: CellTiter-Glo cell viability, Con-NCI-H82 cell (empty-vector control); conditions: Homo sapiens, NCI-H82, NCI-H82 transfected with empty virus vector (control), intracellular ATP, read-out: inhibitory effect on Con-NCI-H82 (IC50)
[2] = tested on: ov-NNMT NCI-H82 cell; experiment: CellTiter-Glo cell viability, ov-NNMT NCI-H82 cell (NNMT overexpressed); conditions: Homo sapiens, NCI-H82, NCI-H82 overexpressing NNMT protein, intracellular ATP, read-out: inhibitory effect on OV-NNMT NCI-H82 (IC50)
[3] = tested on: sh-DNMT1 NCI-H82 cell; experiment: CellTiter-Glo cell viability, sh-DNMT1 NCI-H82 cell (DNMT1 knocked down); conditions: Homo sapiens, NCI-H82, NCI-H82 with DNMT1 knocked down by shRNA, intracellular ATP, read-out: inhibitory effect on sh-DNMT1 NCI-H82 (IC50)

SMILES | IC50 [1] [µM] | IC50 [2] [µM] | IC50 [3] [µM]
COc1ccc2c(c1Cl)CN1CCc3cc4c(cc3C1=C2)OCO4 [AB36450] | 2.08 | 5.32 | 8.34
COc1ccc2c(c1OC)CN1CCc3cc4c(cc3C1=C2Cc1ccc(C(C)C)cc1)OCO4 [AB31870] | 0.53 | 1.32 | 2.54
COc1ccc2c(c1OC)C(C(Cl)(Cl)Cl)N1CCc3cc4c(cc3C1=C2CCc1ccccc1)OCO4 (stereo not drawn) [AB35444] | 1.15 | 4.21 | 5.28
COc1ccc2c(c1OC)C(C(Cl)(Cl)Cl)N1CCc3cc4c(cc3C1=C2CCCCCCBr)OCO4 (stereo not drawn) [AB35501] | 0.87 | 2.12 | 2.56
CC1c2c(ccc3c2OCO3)C(CCCc2ccccc2)=C2c3cc4c(cc3CCN21)OCO4 (stereo not drawn) [AB35427] | 0.56 | 1.82 | 3.24
COc1ccc2c(c1OC)CN1CCc3cc4c(cc3C1=C2)OCCO4 [AB36463] | 0.92 | 3.44 | 3.24
CCCCCCCCC1=C2c3cc4c(cc3CCN2C(C(Cl)(Cl)Cl)c2c1ccc(OC)c2OC)OCO4 (stereo not drawn) [AB35497] | 1.25 | 3.56 | 5.68
ClC(Cl)(Cl)C1c2c(ccc3c2OCO3)C(CCCc2ccccc2)=C2c3cc4c(cc3CCN21)OCO4 (stereo not drawn) [AB35428] | 4.23 | 10.2 | 15.4
COc1ccc2c(c1OC)C(C)N1CCc3cc4c(cc3C1=C2)OCCO4 (stereo not drawn) [AB31898] | 3.69 | 8.64 | 12.1
COc1ccc2c(c1OC)C(=C(Cl)Cl)N1CCc3cc4c(cc3C1=C2)OCO4 [AB36512] | 4.36 | 4.08 | 3.96
COc1ccc2c(c1Br)CN1CCc3cc4c(cc3C1=C2)OCO4 [AB36460] | 1.06 | 3.33 | 4.58
CCOc1c(OC)ccc2c1C(C(Cl)(Cl)Cl)N1CCc3cc4c(cc3C1=C2)OCO4 (stereo not drawn) [AB35499] | 2.16 | 6.96 | 6.52
COc1ccc2c(c1OC/C=C(\C)CCC=C(C)C)C(C1CCCC1)N1CCc3cc4c(cc3C1=C2)OCO4 (stereo not drawn) [AB35438] | 0.72 | 2.12 | 3.22
COc1ccc2c(c1OC)C(C(Cl)(Cl)Cl)N1CCc3cc4c(cc3C1=C2CCCCc1ccccc1)OCO4 (stereo not drawn) [AB35469] | 0.79 | 3.52 | 5.32
ClC(Cl)(Cl)C1c2c(ccc3c2OCO3)C=C2c3cc4c(cc3CCN21)OCO4 (stereo not drawn) [AB35421] | 5.77 | 12.4 | 21.2
COc1ccc2c(c1OC(=O)CC13CC4CC(CC(C4)C1)C3)C(C)N1CCc3cc4c(cc3C1=C2)OCO4 (stereo not drawn) [AB31896] | 1.31 | 4.53 | 3.98
COc1ccc2c(c1OC)C(C)N1CCc3cc4c(cc3C1=C2CCCc1ccccc1)OCCO4 (stereo not drawn) [AB35493] | 0.68 | 1.53 | 2.07
COc1ccc2c(c1OC)C(C(Cl)(Cl)Cl)N1CCc3cc4c(cc3C1=C2Cc1ccccn1)OCO4 (stereo not drawn) [AB35447] | 26.2 | 25.7 | 24.3
COc1ccc2c(c1OC)C(C1CCCC1)N1CCc3cc4c(cc3C1=C2CCCCCCCl)OCO4 (stereo not drawn) [AB35500] | 1.11 | 2.98 | 2.88
COc1ccc2c(c1OCCCCc1ccccc1)C(C(Cl)(Cl)Cl)N1CCc3cc4c(cc3C1=C2)OCO4 (stereo not drawn) [AB35535] | 0.22 | 1.21 | 1.32
[2H]C1c2c(ccc(OC)c2OC)C=C2c3cc4c(cc3CCN21)OCO4 (stereo not drawn) [AB36415] | 0.88 | 2.56 | 3.64
COc1ccc2c(c1OC)C(C)N1CCc3cc4c(cc3C1=C2CCc1ccccc1)OCO4 (stereo not drawn) [AB35498] | 1.28 | 4.12 | 4.38
COc1ccc2c(c1OCCCCCCCl)C(C)N1CCc3cc4c(cc3C1=C2)OCO4 (stereo not drawn) [AB31888] | 2.26 | 4.64 | 6.12
CCOc1c(OC)ccc2c1CN1CCc3cc4c(cc3C1=C2)OCO4 [AB35594] | 1.26 | 4.12 | 3.98
COc1ccc2c(c1OCCCCCCBr)C(C1CCCC1)N1CCc3cc4c(cc3C1=C2)OCO4 (stereo not drawn) [AB35458] | 1.56 | 4.12 | 5.32
COc1ccc2c(c1OCCBr)CN1CCc3cc4c(cc3C1=C2)OCO4 [AB36403] | 0.38 | 1.54 | 1.46
COc1ccc2c(c1OC)C(C(Cl)(Cl)Cl)N1CCc3cc4c(cc3C1=C2CCCCCCCl)OCO4 (stereo not drawn) [AB35524] | 1.34 | 4.32 | 4.02
COc1ccc2c(c1OCCCCl)C(C1CCCCC1)N1CCc3cc4c(cc3C1=C2)OCO4 (stereo not drawn) [AB35491] | 2.22 | 6.86 | 6.54
